# In patent US20110039763A1, “TARGETED ANTIMICROBIAL MOIETIES” (C3 JIAN, INC., priority 2009, published 2011):
# Entries after “also recorded” stand apart in the source; their conditions may differ.
# Tested on: microorganisms
# Experiment: Targeting peptide binding to target microorganisms (Tables 3, 10, 12)
# Details: microorganism(s) the targeting peptide binds; binding in aqueous buffers varied with peptide solubility, preferably 1x PBS
row,Substance,Target(s)
1,PF-291 (DVDGAIESEL; Peptide with targeting and/or antimicrobial activity),S. mutans; also recorded: E. coli
2,PF-295 (NIQVYESECGNYIFKKSDESFLIDIFDKNGTH; Peptide with targeting and/or antimicrobial activity),C. difficile
3,PF-299 (LATKLKYEKEHKKM; Peptide with targeting and/or antimicrobial activity),B. subtilis
4,PF-300 (VKDVLLELFNKIIGA; Peptide with targeting and/or antimicrobial activity),B. subtilis; also recorded: C. difficile
5,PF-304 (LVKDTSDIKNDLNNIEIVTSKNSNDIAKLKSVK; Peptide with targeting and/or antimicrobial activity),S. mutans
6,PF-308 (QQYLILDRM; Peptide with targeting and/or antimicrobial activity),C. difficile
7,PF-309 (GIPGMTAAPAEENEQEENADEE; Peptide with targeting and/or antimicrobial activity),S. mutans; also recorded: E. coli
8,PF-311 (IDAVTKKKTTCMIRAPTKIPIAHTDN; Peptide with targeting and/or antimicrobial activity),C. difficile
9,PF-314 (ECLKKAIKSKALNKAFKIDVPDEVYDNLLMELEEYEK; Peptide with targeting and/or antimicrobial activity),S. mutans
10,PF-317 (LILVSDI; Peptide with targeting and/or antimicrobial activity),S. mutans
11,PF-320 (DSGYYALLENKEERVVWDGEVVANNIFNNLWIVVNKVKTG; Peptide with targeting and/or antimicrobial activity),S. mutans; also recorded: E. coli
12,PF-323 (ARESIEKSHVPVDATIVGVVDSFEVFDE; Peptide with targeting and/or antimicrobial activity),S. mutans
13,PF-324 (HFSLL; Peptide with targeting and/or antimicrobial activity),C. difficile
14,PF-325 (LTIDEKLRNHR; Peptide with targeting and/or antimicrobial activity),S. mutans; also recorded: E. coli
15,PF-326 (VIVGNLGAQKEKRNDTPISAKKDIMGDKTVRVRADLHH; Peptide with targeting and/or antimicrobial activity),S. mutans; also recorded: E. coli
16,PF-328 (NGNEKAFSEVENLVK; Peptide with targeting and/or antimicrobial activity),S. mutans
17,PF-329 (IGILFDKSVRKY; Peptide with targeting and/or antimicrobial activity),S. epidermidis
18,PF-333 (YMTKKLVEMAEQQMAGKSNR; Peptide with targeting and/or antimicrobial activity),S. mutans
19,PF-334 (QQYLILDRM; Peptide with targeting and/or antimicrobial activity),S. epidermidis; also recorded: C. difficile
20,PF-337 (YMTKKLVEMAERQMAGK; Peptide with targeting and/or antimicrobial activity),S. epidermidis
21,PF-338 (KGTSCPDQLSKAIRQSI; Peptide with targeting and/or antimicrobial activity),S. mutans
22,PF-340 (VKDVLLELFNKIIGA; Peptide with targeting and/or antimicrobial activity),S. mutans; also recorded: E. coli
